Measurements published in the supplement of paper PMC10307832.

Experiments:
Experiment in all cases: relative viability (nuclei count vs DMSO), 5 days (fraction); higher = more cells survive
IU1-47 + AZD7762 = compound: CC1=CC(=C(N1C2=CC=C(C=C2)Cl)C)C(=O)CN3CCCCC3 [IU1-47] + NC(=O)Nc1cc(-c2cccc(F)c2)sc1C(=O)N[C@H]1CCCNC1 [AZD7762] (partner 0.2 µM)
Outline: (§1)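 One day after seeding in 1536-well plates, lung cancer cell lines were dosed by pin tool. Dosing was either single-drug or a fixed anchor-drug dose plus five library-drug doses (not always all listed) in √10 steps. After 5 days, nuclei were stained in one fix-and-stain step and counted on 4× images, and relative viability is the nuclei count of treated wells over that of vehicle wells, given as the median of duplicate plates.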

FG-4592 + Foretinib = compound: Cc1nc(C(=O)NCC(=O)O)c(O)c2ccc(Oc3ccccc3)cc12 [FG-4592] + COc1cc2c(Oc3ccc(NC(=O)C4(C(=O)Nc5ccc(F)cc5)CC4)cc3F)ccnc2cc1OCCCN1CCOCC1 [Foretinib] (partner 0.25 µM)
Outline: as §1

FG-4592 + Crizotinib = compound: Cc1nc(C(=O)NCC(=O)O)c(O)c2ccc(Oc3ccccc3)cc12 [FG-4592] + C[C@@H](Oc1cc(-c2cnn(C3CCNCC3)c2)cnc1N)c1c(Cl)ccc(F)c1Cl [Crizotinib] (partner 1 µM)
Outline: as §1

IU1-47 + Olaparib = compound: CC1=CC(=C(N1C2=CC=C(C=C2)Cl)C)C(=O)CN3CCCCC3 [IU1-47] + O=C(c1cc(Cc2n[nH]c(=O)c3ccccc23)ccc1F)N1CCN(C(=O)C2CC2)CC1 [Olaparib] (partner 8 µM)
Outline: as §1

Cell Line	relative viability (IU1-47 + AZD7762; first compound 0.08 µM)	relative viability (IU1-47 + AZD7762; first compound 0.253 µM)	relative viability (IU1-47 + AZD7762; first compound 0.8 µM)	relative viability (IU1-47 + AZD7762; first compound 2.53 µM)	relative viability (IU1-47 + AZD7762; first compound 8 µM)	relative viability (FG-4592 + Foretinib; first compound 0.08 µM)	relative viability (FG-4592 + Foretinib; first compound 0.253 µM)	relative viability (FG-4592 + Foretinib; first compound 0.8 µM)	relative viability (FG-4592 + Foretinib; first compound 2.53 µM)	relative viability (FG-4592 + Foretinib; first compound 8 µM)	relative viability (FG-4592 + Crizotinib; first compound 0.08 µM)	relative viability (FG-4592 + Crizotinib; first compound 0.253 µM)	relative viability (FG-4592 + Crizotinib; first compound 0.8 µM)	relative viability (FG-4592 + Crizotinib; first compound 2.53 µM)	relative viability (FG-4592 + Crizotinib; first compound 8 µM)	relative viability (IU1-47 + Olaparib; first compound 0.08 µM)	relative viability (IU1-47 + Olaparib; first compound 0.253 µM)	relative viability (IU1-47 + Olaparib; first compound 0.8 µM)	relative viability (IU1-47 + Olaparib; first compound 2.53 µM)	relative viability (IU1-47 + Olaparib; first compound 8 µM)
HOP-62	0.488	0.712	0.619	0.493	0.608	1.13	1.03	1.12	1.05	0.986	0.981	0.89	1.01	0.922	0.654	0.428	0.622	0.404	0.554	0.604
LC-2-ad	0.851	0.84	0.866		0.857	0.88	0.838		0.789	0.877	0.433	0.412	0.48	0.508	0.486	0.726	0.711	0.673		0.732
LCLC-97TM1	0.31	0.286	0.294	0.0924	0.245	0.9	0.901	0.876	0.887	0.866	0.347	0.342	0.372		0.435	0.44	0.461	0.352		0.21
LCLC-103H	0.84	0.948	0.797	0.54	0.807	0.716	0.671	0.632	0.799	0.769	0.884	0.977	1.01	0.994	1.05	0.794	0.831	0.779	0.77	0.737
LK-2	0.488	0.557	0.542	0.368	0.305	1.17	0.95		1.19	0.993		0.23		0.279	0.216	0.935	0.958	0.802	0.745	0.641
LOU-NH91	0.824	0.775	0.826	0.815	0.765	0.971	0.879	0.917	0.868	0.91	0.738	0.677	0.716	0.727	0.715	1.02	0.995	0.877	0.966	0.886
LU99A	0.404	0.412	0.401	0.33	0.292	0.789	0.791	0.743	0.879	0.808	0.534	0.523	0.543	0.558	0.58	0.233	0.273	0.272	0.265	0.245
LXF-289	1.25	1.14	1.21	1.07	1.02	0.97	0.981	0.993	0.974	1.12	0.796	0.721	0.911	0.77	0.901	1.08	1.15	1.09	0.993	0.862
NCI-H23	0.229		0.227	0.18	0.243	1.01	0.856	0.973	0.999	0.966	0.556	0.471	0.654	0.627	0.472	0.288		0.281	0.385	0.257
NCI-H322M	0.671	0.696	0.54	0.615	0.488	0.87	0.937	0.903	0.975	0.91	0.924	0.886	1.19	1.02	0.815	0.838	0.838	0.813	0.845	0.757
NCI-H358	0.576	0.521	0.5	0.405	0.435	0.732	0.632	0.85	0.535	0.632	0.531	0.602	0.703	0.704	0.594	0.704	0.784	0.55	0.705	0.436
NCI-H441	1.38	1.36	1.19	1.18	1.21	0.956	0.896	0.931	0.841	1.01	0.582	0.646	0.916	0.72	0.632	0.61	0.591	0.511	0.543	0.539
NCI-H460	0.639	0.635	0.686	0.754	0.628	0.986	1.04	1.04	1.03	1.03	0.87	0.864	1.21	0.952	0.994	0.545	0.407	0.501	0.398	0.35
NCI-H596	1.06		1.03	0.889	1.03	0.814	0.617	0.764	0.867	0.465	1.02	0.898		0.806	0.778	0.676		0.754	0.718	0.632
NCI-H647	0.551	0.392	0.486	0.386	0.29	1.19	1.07	1.18	0.815	0.782	0.941	1.04	1.01	1.17	1.03	0.661	0.755	0.556	0.783	0.333
NCI-H650	1.22	1	1.06	0.947	1.24	0.997	0.961	0.882	0.991	0.861	0.598	0.648	0.756	0.654	0.61	0.447	0.426	0.378	0.4	0.413
NCI-H727	0.582	0.539	0.539	0.512	0.58	0.934	0.617	1.08	0.999	1.11	0.776	0.827	0.913	1.1	0.83	0.661	0.729	0.691	0.64	0.66

Cell Line	relative viability (IU1-47 + AZD7762; first compound 0.08 µM)	relative viability (IU1-47 + AZD7762; first compound 0.253 µM)	relative viability (IU1-47 + AZD7762; first compound 0.8 µM)	relative viability (IU1-47 + AZD7762; first compound 2.53 µM)	relative viability (IU1-47 + AZD7762; first compound 8 µM)	relative viability (FG-4592 + Foretinib; first compound 0.08 µM)	relative viability (FG-4592 + Foretinib; first compound 0.253 µM)	relative viability (FG-4592 + Foretinib; first compound 0.8 µM)	relative viability (FG-4592 + Foretinib; first compound 2.53 µM)	relative viability (FG-4592 + Foretinib; first compound 8 µM)	relative viability (FG-4592 + Crizotinib; first compound 0.08 µM)	relative viability (FG-4592 + Crizotinib; first compound 0.253 µM)	relative viability (FG-4592 + Crizotinib; first compound 0.8 µM)	relative viability (FG-4592 + Crizotinib; first compound 2.53 µM)	relative viability (FG-4592 + Crizotinib; first compound 8 µM)	relative viability (IU1-47 + Olaparib; first compound 0.08 µM)	relative viability (IU1-47 + Olaparib; first compound 0.253 µM)	relative viability (IU1-47 + Olaparib; first compound 0.8 µM)	relative viability (IU1-47 + Olaparib; first compound 2.53 µM)	relative viability (IU1-47 + Olaparib; first compound 8 µM)
NCI-H838	0.931	0.99	0.917	0.925	0.876	1.06	0.922	1.08	1.06	0.969	0.795	0.799	0.962	0.941	0.904	0.809	0.799	0.774	0.911	0.58
NCI-H1355	0.798	0.957	0.844		0.584	0.987	0.678	0.93	1.02	0.971	1.05	1.02		1.07	0.944	0.781	0.826	0.751		0.781
NCI-H1437	1.14	1.11	1.12	1.05	1.1	1.24	1.19	1.29	1.3	1.04	0.95	0.911	1.03	0.936	0.879	0.623	0.615	0.618	0.633	0.549
NCI-H1651	0.479	0.498	0.529	0.316	0.418	0.863	0.773	0.88	0.901	0.839	0.89	0.799	0.829	0.863	0.862	0.155	0.162	0.17	0.183	0.185
NCI-H1666	0.866	0.86	0.854	0.803	0.815	0.907	0.865	0.939	0.963	0.837	0.993	0.903	0.829	0.944	0.728	0.757	0.681	0.79	0.713	0.759
NCI-H1703	0.0968	0.172	0.133		0.112		0.312	0.34	0.321	0.339	0.591	0.572	0.702	0.44	0.733	0.387	0.39	0.447	0.355	0.487
NCI-H1734	0.639	0.481	0.487	0.383	0.517	0.792	0.812	0.806	0.884	0.75	0.638	0.711	0.674	0.595	0.643	0.669	0.75	0.631	0.608	0.656
NCI-H1755	0.429	0.557	0.57	0.443	0.377	0.907	0.905	0.857	0.929	0.921	0.77	0.875	0.864	0.941	0.916	0.914	0.872	0.883	0.948	0.829
NCI-H1915	0.712	0.71	0.671	0.655	0.703	1.09	1.06	1.22	1.12	1	0.87	0.883	0.922	0.874	0.905	0.251	0.267	0.267	0.252	0.261
NCI-H1944	0.794	0.612	0.601	0.445	0.464	0.928	0.816	0.941	0.85	0.934	1.05	1.1	1.13	1.17	1.05	0.433	0.409	0.398	0.356	0.427
NCI-H1975	0.698	0.766	0.728	0.797	0.756	0.986	0.949	1.07	0.956	0.833	0.921	0.892	1.11	0.991	0.897	0.858	0.773	0.748	1.02	0.78
NCI-H1993	0.682	0.763	0.769	0.781	0.85	0.783	0.582	0.781	0.828	0.747	0.969	0.873	0.919	0.834	0.828	1.22	1.01	1.08	1.08	1.14
NCI-H2085	0.983	1.02	0.997	0.73	1.02	0.837	0.696	0.927	0.784	0.881	0.852	0.871	0.928	1.03	0.742	0.777	0.763	0.747	0.768	0.742
NCI-H2087	1.45	1.29	1.53	1.31	1.24	1.19	1.02	1.21	1.07	1.11	0.722	0.648	1.01	0.997	0.896	0.587	0.633	0.563	0.646	0.476
NCI-H2126	1.01	1.08	1.14	0.712	0.837	1.14	1.13	1.16	1.09	1.15	0.989	1.01	1.04	1	1.03	0.972	0.945	0.89	0.898	0.762
NCI-H2170	1.04	1.05	0.985	0.76	0.976	1.01	0.962	1.03	1.04	0.915	1.16	1.14	1.24	1.22	0.909	0.705	0.652	0.634	0.693	0.652
